Source: ChEMBL document CHEMBL4619799, “Mechanistic Insight into Antiretroviral Potency of 2'-Deoxy-2'-β-fluoro-4'-azidocytidine (FNC) with a Long-Lasting Effect on HIV-1 Prevention” (J Med Chem, 2020)
The source made the active and inactive calls. No cut-off for these calls is given here.

How the values were obtained:
[1] = tested on: Human immunodeficiency virus 1; test: (§1) Antiviral activity against JRFL pseudotyped HIV1 infected in human Hut/CCR5 cells assessed as time needed to reach 50% reduction of virus infection at 1 nM incubated with cells for 4 hrs prior to compound washout followed by viral infection and measured after 72 hrs by luciferase reporter gene assay; type: functional
[2] = biological target: Virion infectivity factor (Human immunodeficiency virus type 1 group M subtype B (isolate NY5)(HIV-1)) (UniProt P12504); test: Inhibition of HIV1 HA-tagged Vif expressed in HEK293T cells co-expressing Myc-tagged pcDNA-APOBEC3G and pcDNA-ubiquitin-His assessed as reduction in Vif-mediated A3G polyubiquitination at 3.5 to 35 nM measured after 48 hrs by Western blot analysis; type: cell-based; conditions: Human immunodeficiency virus 1, HEK-293T
Chain of Virion infectivity factor (Human immunodeficiency virus type 1 group M subtype B (isolate NY5)(HIV-1)) (P12504 whole entry): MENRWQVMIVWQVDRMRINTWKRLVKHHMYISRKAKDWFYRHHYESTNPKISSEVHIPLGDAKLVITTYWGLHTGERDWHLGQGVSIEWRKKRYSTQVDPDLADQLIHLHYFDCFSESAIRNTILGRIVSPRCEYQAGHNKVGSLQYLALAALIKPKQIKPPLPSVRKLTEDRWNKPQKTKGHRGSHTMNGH

[3] = Elimination half life in monkey PBMC assessed as FNC-TP level at 1 mg/kg, po administered as single dose by LC-MS/MS analysis; type: ADME, organism-based, Macaca mulatta; conditions: rhesus monkey, in vivo
[4] = Binding affinity to HIV1 Vif and CBFbeta-ELOB-ELOC complex (unknown origin) assessed as compound-complex adduct formation measured after 150 secs by CM5 chip based assay
[5] = Tmax in Sprague-Dawley rat thymus at 0.5 mg/kg, po administered as single dose via gavage by LC-MS/MS analysis; type: ADME, organism-based
[6] = tested on: Homo sapiens; test: In vivo inhibition of Vif-induced A3G degradation in HIV1 infected patient assessed as increase in A3G expression in CD4-positive T cells at 4 mg administered daily for 7 days measured 24 hrs post-last dose by Western blot analysis; type: functional, organism-based
[7] = Elimination half life in monkey PBMC assessed as FNC-TP level at 6 mg/kg, po administered as single dose by LC-MS/MS analysis; type: ADME, organism-based, Macaca mulatta; conditions: rhesus monkey, in vivo
[8] = Effect on CD69 surface expression in IL2-induced human PBMC-derived CD4-positive T cells at 100 nM measured after 48 hrs by immunostaining based flow cytometry; type: ADME; conditions: 0.1 µM
[9] = biological target: Virion infectivity factor (Human immunodeficiency virus type 1 group M subtype B (isolate NY5)(HIV-1)) (UniProt P12504); test: Inhibition of HIV1 HA-tagged Vif expressed in HEK293T cells co-expressing Myc-tagged pcDNA-APOBEC3G assessed as reduction in Vif-mediated A3G degradation at 10 nM measured after 48 hrs by Western blot analysis; type: cell-based; conditions: Human immunodeficiency virus 1, HEK-293T
[10] = AUC (0 to 24 hrs) in monkey at 6 mg/kg, po administered as single dose by LC-MS/MS analysis; type: ADME, organism-based, Macaca mulatta; parameters: dose 6 mg/kg, time < 24 hr, route oral; conditions: rhesus monkey, in vivo
[11] = tested on: Human immunodeficiency virus 1; test: Synergistic antiviral activity against JRFL pseudotyped HIV1 infected in human Hut/CCR5 cells assessed as combination index in presence of dolutegravir by luciferase reporter gene based assay; type: functional
[12] = AUC (0 to 24 hrs) in monkey PBMC assessed as FNC-TP level at 6 mg/kg, po administered as single dose by LC-MS/MS analysis; type: ADME, organism-based, Macaca mulatta; parameters: dose 6 mg/kg, time < 24 hr, route oral; conditions: rhesus monkey, in vivo
[13] = tested on: Human immunodeficiency virus 1; test: as §1, with “at 10” for “at 1”; type: functional
[14] = Effect on HLA-DR surface expression in IL2-induced human PBMC-derived CD4-positive T cells at 100 nM measured after 48 hrs by immunostaining based flow cytometry; type: ADME; conditions: 0.1 µM
[15] = Effect on CD25 surface expression in IL2-induced human PBMC-derived CD14-positive monocytes at 100 nM measured after 48 hrs by immunostaining based flow cytometry; type: ADME; conditions: 0.1 µM
[16] = Tmax in monkey PBMC assessed as FNC-TP level at 1 mg/kg, po administered as single dose by LC-MS/MS analysis; type: ADME, organism-based, Macaca mulatta; conditions: rhesus monkey, in vivo
[17] = Cytotoxicity against HEK293 cells assessed as cell viability by MTT assay; type: cell-based; conditions: human
[18] = tested on: Human immunodeficiency virus 1; test: Antiviral activity against HIV1 infected patient assessed as […] in CD4-positive T cell count at 4 mg administered daily for 7 days measured 24 hrs post-last dose by immunostaining based flow cytometry analysis; type: functional, organism-based
[19] = AUC (0 to 24 hrs) in monkey PBMC assessed as FNC-TP level at 1 mg/kg, po administered as single dose by LC-MS/MS analysis; type: ADME, organism-based, Macaca mulatta; parameters: time < 24 hr, dose 1 mg/kg, route oral; conditions: rhesus monkey, in vivo
[20] = Cmax in monkey PBMC assessed as FNC-TP level at 1 mg/kg, po administered as single dose by LC-MS/MS analysis; type: ADME, organism-based, Macaca mulatta; parameters: dose 1 mg/kg, route oral; conditions: rhesus monkey, in vivo
[21] = Drug metabolism in human PBMC-derived CD14-positive monocytes assessed as FNC-TP formation at 350 nM measured after 4 hrs by LC-MS/MS analysis; type: ADME; conditions: 0.35 µM
[22] = Effect on CD69 surface expression in IL2-induced human PBMC-derived CD14-positive monocytes at 100 nM measured after 48 hrs by immunostaining based flow cytometry; type: ADME; conditions: 0.1 µM
[23] = tested on: Human immunodeficiency virus 1; test: as §1, with “at 0.1” for “at 1”; type: functional
[24] = Binding affinity to HIV1 Vif and CBFbeta-ELOB-ELOC complex (unknown origin) by CM5 chip based assay
[25] = Ratio of Cmax in monkey plasma at 6 mg/kg, po administered as single dose measured after 1 hr to Cmax in monkey plasma at 6 mg/kg, po administered as single dose measured after 24 hrs; type: ADME, organism-based, Macaca mulatta; conditions: rhesus monkey, in vivo
[26] = Drug metabolism in human PBMC-derived CD4-positive T cells assessed as FNC-TP formation at 350 nM measured after 4 hrs by LC-MS/MS analysis; type: ADME; conditions: 0.35 µM
[27] = Selectivity index, ratio of CC50 for human Hut/CCR5 cells to EC50 for antiviral activity against JRFL pseudotyped HIV1 infected in human Hut/CCR5 cells; type: toxicity, cell-based; conditions: read-out: Ratio CC50/EC50
[28] = tested on: Human immunodeficiency virus 1; test: Potency index, ratio of lamivudine EC50 to test compound EC50 for antiviral activity against VSVG pseudotyped HIV1 infected in HEK293 cells; type: functional
[29] = tested on: Human immunodeficiency virus 1; test: Antiviral activity against VSVG pseudotyped HIV1 infected in HEK293 cells preincubated for 3 hrs followed by compound washout and subsequent compound redosing and measured after 72 hrs by luciferase reporter gene based assay; type: functional, organism-based; conditions: Human immunodeficiency virus 1, HEK293
[30] = AUC (0 to 24 hrs) in monkey plasma at 1 mg/kg, po administered as single dose by LC-MS/MS analysis; type: ADME, organism-based, Macaca mulatta; parameters: time < 24 hr, dose 1 mg/kg, route oral; conditions: rhesus monkey
[31] = Tmax in monkey PBMC assessed as FNC-TP level at 6 mg/kg, po administered as single dose by LC-MS/MS analysis; type: ADME, organism-based, Macaca mulatta; conditions: rhesus monkey, in vivo
[32] = tested on: Human immunodeficiency virus 1; test: Synergistic antiviral activity against JRFL pseudotyped HIV1 infected in human Hut/CCR5 cells assessed as combination index in presence of rilpivirine by luciferase reporter gene based assay; type: functional
[33] = Effect on CD25 surface expression in IL2-induced human PBMC-derived CD4-positive T cells at 100 nM measured after 48 hrs by immunostaining based flow cytometry; type: ADME; conditions: 0.1 µM
[34] = Effect on HLA-DR surface expression in IL2-induced human PBMC-derived CD14-positive monocytes at 100 nM measured after 48 hrs by immunostaining based flow cytometry; type: ADME; conditions: 0.1 µM

Structure (SMILES): [N-]=[N+]=N[C@]1(CO)O[C@@H](n2ccc(N)nc2=O)[C@@H](F)[C@@H]1O [RO-0622]
- Time [1]: 83.14 h
- inhibition [2]: Active
- beta t1/2 [3]: 133.15 h
- Activity [4]: 36%
- Tmax [5]: 7 to 12 h
- inhibition [6]: Active
- beta t1/2 [7]: 112.4 h
- Activity [8]: Non-Toxic
- inhibition [9]: Active
- AUC(0-t) at 24 h [10]: 7.58 µM·h
- CI50 [11]: 0.01704
- CI75 [11]: 0.01929
- CI90 [11]: 0.02209
- CI95 [11]: 0.0244
- AUC [12]: 0.24922 µM·h
- Time [13]: 123.06 to 123.1 h
- Activity [14]: Non-Toxic
- Activity [15]: Non-Toxic
- Tmax [16]: 6 h
- CC50 [17]: ≥ 25000 nM
- Activity [18]: inactive
- AUC [19]: 0.09933 µM·h
- Cmax [20]: 2.1 nM
- Drug metabolism [21]: Metabolite_Detected
- Activity [22]: Non-Toxic
- Time [23]: 68.6 to 68.63 h
- Kd [24]: 87 nM
- Ratio [25]: 320
- Drug metabolism [26]: Metabolite_Detected
- selectivity ratio [27]: 25000
- Ratio EC50 [28]: 4700
- EC50 [29]: 0.063 nM
- AUC(0-t) at 24 h [30]: 0.499 µM·h
- Tmax [31]: 6 h
- CI50 [32]: 0.113
- CI75 [32]: 0.0902
- CI90 [32]: 0.07208
- CI95 [32]: 0.06194
- Activity [33]: Non-Toxic
- Activity [34]: Non-Toxic
